Laboratory results: patent EP0266896A1, “7-( (Meta-substituted) phenylglycine) 1-carba-1-dethiacephalosporins” (priority 1986, dated 1988)
Structures can show the parent of a compound that is named as a salt. Where two headings read alike, the source gives them in different places.

Legend:
[1] = system: Staphylococcus aureus V41; assay: MIC by standard agar dilution test; format: cell-based; settings: Staphylococcus aureus V41, penicillin G resistant
From the text: (§1) The antibiotic activity of selected compounds of Formula I and, for comparison, a compound of related structure, is illustrated by the following in vitro test data. In Table I, the minimum inhibitory concentrations (MIC) for the compounds against a wide range of gram-positive and gram-negative bacteria are presented. The MIC values were obtained by the standard agar dilution test method. The excellent in vitro activity of the claimed compounds is especially surprising in light of their high solution stability. High solution stability of a β-lactam compound was until now thought to indicate low acylating ability of the β-lactam, and thus low antibacterial activity for the compound.

Escherichia coli TEM = assay: MIC by standard agar dilution test; format: cell-based; settings: β-lactamase producer
From the text: as §1

[2] = system: Staphylococcus aureus S13E; assay: MIC by standard agar dilution test; format: cell-based; settings: β-lactamase producer, penicillin G resistant
From the text: as §1

[3] = system: Streptococcus pneumoniae Park I; assay: MIC by standard agar dilution test; format: cell-based
From the text: as §1

[4] = system: Staphylococcus epidermidis EPI2; assay: MIC by standard agar dilution test; format: cell-based; settings: Staphylococcus epidermidis EPI2, methicillin resistant
From the text: as §1

[5] = system: Staphylococcus epidermidis EPI1; assay: MIC by standard agar dilution test; format: cell-based; settings: Staphylococcus epidermidis EPI1, methicillin resistant
From the text: as §1

Salmonella typhi 1335 = assay: MIC by standard agar dilution test; format: cell-based
From the text: as §1

Shigella sonnei N9 = assay: MIC by standard agar dilution test; format: cell-based
From the text: as §1

[6] = system: Hemophilus influenzae C.L.; assay: MIC by standard agar dilution test; format: cell-based
From the text: as §1

Salmonella typhi X514 = assay: MIC by standard agar dilution test; format: cell-based
From the text: as §1

[7] = Intravenous pharmacokinetics in the rat, plasma levels monitored by bioassay with an E. coli strain
Method: (§2) The tests were performed by methods well-recognized in the art.
(§3) Specifically, the male Sprague-Dawley rats were administered a 20 mg/kg dose intravenously. The plasma levels of the administered compound were monitored by bioassay with an E. coli strain.

[8] = rat, in vivo, iv, 20 mg/kg
Method: as §2, §3

Row | SMILES | Minimum Inhibitory Concentration [2] [µg/mL] | Minimum Inhibitory Concentration (Salmonella typhi 1335) [µg/mL] | Minimum Inhibitory Concentration (Shigella sonnei N9) [µg/mL] | Minimum Inhibitory Concentration (Salmonella typhi X514) [µg/mL] | AUC (area under the curve) [8] | Half-Life [8] [h] | further results
1 | CS(=O)(=O)Nc1cccc([C@@H](N)C(=O)N[C@@H]2C(=O)N3C(C(=O)O)=C(Cl)CC[C@H]23)c1.O=C(O)C(F)(F)F [Example 1, 7β-[2ʹ-(R)-2ʹ-(m-(Methylsulfonamido)phenyl)-2ʹ-Aminoactamido]-3-Chloro-3-(1-Carba-1-Dethiacephem)-4-Carboxyli c Acid Trifluoroacetate Salt] | 2 | 0.5 | 0.5 | 0.5 | – | – | Minimum Inhibitory Concentration [1]: 4 µg/mL; Minimum Inhibitory Concentration (Escherichia coli TEM): 0.25 µg/mL; Minimum Inhibitory Concentration [3]: 1 µg/mL; Minimum Inhibitory Concentration [4]: 2 µg/mL; Minimum Inhibitory Concentration [5]: 4 µg/mL; Minimum Inhibitory Concentration [6]: 2 µg/mL; Half-Life ([7]; rat plasma, 20 mg/kg intravenously, bioassay, model-independent analysis): 5.57 h
2 | CS(=O)(=O)Nc1cccc([C@@H](N)C(=O)N[C@@H]2C(=O)N3C(C(=O)O)=C(Cl)CC[C@H]23)c1 [Example 2, 7β-[2ʹ-(R)-2ʹ-(m-(Methylsulfonamido)phenyl)-2ʹ-Aminoactamido]-3-Chloro-3-(1-Carba-1-Dethiacephem)-4-Carboxyli c Acid, Zwitterionic Salt] | – | – | – | – | – | – | Half-Life ([7]; rat, plasma, iv, 20 mg/kg): 5.28 h
3 | CCS(=O)(=O)Nc1cccc(C(N)C(=O)N[C@@H]2C(=O)N3C(C(=O)O)=C(Cl)CC[C@H]23)c1.O=C(O)C(F)(F)F (stereo partly drawn) [Example 3, 7β-[2ʹ-(R,S)-2ʹ-(m-(Ethylsulfonamido)phenyl)-2ʹ-Aminoaetamido]-3-Chloro-3-(1-Carba-1-Dethiacephem)-4-Carboxyl ic Acid Trifluoroacetate Salt] | – | – | – | – | 18 | 0.55 | –
4 | CCS(=O)(=O)Nc1cccc([C@@H](N)C(=O)N[C@@H]2C(=O)N3C(C(=O)O)=C(Cl)CC[C@H]23)c1 [Example 4, 7β-[2ʹ-(R)-2ʹ-(m-(Ethylsulfonamido)phenyl)-2ʹ-Aminoace amido)-3-Chloro-3-(1-Carba-1-Dethiacephem)-4-Carboxylic Acid, Zwitterionic Salt] | 2 | 2 | 2 | 2 | 12 | 0.683 | –
5 | CCCS(=O)(=O)Nc1cccc([C@@H](N)C(=O)N[C@@H]2C(=O)N3C(C(=O)O)=C(Cl)CC[C@H]23)c1 [Example 5, 7β-[2ʹ-(R)-2ʹ-(m-(n-Propylsulfonamido)phenyl)-2ʹ-Aminocetamido]-3-Chloro-3-(1-Carba-1-Dethiacephem)-4-Carboxy lic Acid, Zwitterionic Salt.] | – | – | – | – | 20 | 0.65 | –
